According to the NIST ThermoML archive (doi:10.1021/acs.jced.8b00236):
“And” between values parts separate entries of the source, which are not always exact repeats. Equal entries are not always repeated. ± gives the expanded uncertainty stated by the source.

How the values were obtained:
[1] = mn = molality of the nth substance listed, in mol/kg; conditions: 75 kPa, Liquid; for viscosity: Capillary tube (Ostwald / Ubbelohde) method; for speed of sound: Frequency=3 MHz, Single path-length method; for mass density: Vibrating tube method
[2] = 75 kPa, Liquid, Capillary tube (Ostwald / Ubbelohde) method

[Cl-].[Na+] [sodium chloride] + O
[1]
Conditions | mass density, m1 = 0.15 | mass density, m1 = 0.25 | speed of sound, m1 = 0.15 | speed of sound, m1 = 0.25 | viscosity, m1 = 0.15 | viscosity, m1 = 0.25 [mPa·s]
288.15 K | 1005.46 ± 0.3 kg/m3 and 1005.45 ± 0.3 kg/m3 and 1005.36 ± 0.3 kg/m3 | 1009.51 ± 0.3 kg/m3 | 1476.6 ± 4 m/s and 1476.5 ± 4 m/s | 1483.6 ± 4 m/s and 1483.4 ± 4 m/s and 1483.3 ± 4 m/s | 1.156 ± 0.024 mPa·s and 1.158 ± 0.024 mPa·s | 1.166 ± 0.024
293.15 K | 1004.48 ± 0.3 kg/m3 [middle of 4 runs] | 1008.5 ± 0.3 kg/m3 and 1008.51 ± 0.3 kg/m3 | 1492.3 ± 4 m/s and 1492.2 ± 4 m/s | – | 1.016 ± 0.021 mPa·s | 1.025 ± 0.021
298.15 K | 1003.26 ± 0.3 kg/m3 and 1003.27 ± 0.3 kg/m3 and 1003.18 ± 0.3 kg/m3 | 1007.26 ± 0.3 kg/m3 | 1506.2 ± 4 m/s and 1506 ± 4 m/s and 1506.1 ± 4 m/s | 1512.5 ± 4 m/s and 1512.3 ± 4 m/s and 1512.2 ± 4 m/s | 0.905 ± 0.019 mPa·s and 0.9049 ± 0.019 mPa·s and 0.906 ± 0.019 mPa·s | 0.913 ± 0.019
303.15 K | 1001.83 ± 0.3 kg/m3 [middle of 4 runs] | 1005.78 ± 0.3 kg/m3 and 1005.79 ± 0.3 kg/m3 | 1518.2 ± 4 m/s and 1518.1 ± 4 m/s | 1524.3 ± 4 m/s and 1524.1 ± 4 m/s and 1524 ± 4 m/s | 0.811 ± 0.017 mPa·s [middle of 4 runs] | 0.819 ± 0.017
308.15 K | 1000.11 ± 0.3 kg/m3 [middle of 5 runs] | 1004.12 ± 0.3 kg/m3 and 1004.11 ± 0.3 kg/m3 | 1528.7 ± 4 m/s and 1528.6 ± 4 m/s | 1534.3 ± 4 m/s [middle of 5 runs] | 0.731 ± 0.015 mPa·s and 0.7306 ± 0.015 mPa·s and 0.732 ± 0.015 mPa·s | 0.739 ± 0.015

O [water]
[2]
Conditions | viscosity
288.15 K | 1.146 ± 0.024 mPa·s
293.15 K | 1.007 ± 0.021 mPa·s and 1.004 ± 0.021 mPa·s
298.15 K | 0.893 ± 0.019 mPa·s and 0.8929 ± 0.019 mPa·s
303.15 K | 0.797 ± 0.017 mPa·s and 0.7965 ± 0.017 mPa·s
308.15 K | 0.719 ± 0.015 mPa·s and 0.7187 ± 0.015 mPa·s

O [water] + NCC(=O)O
[1], m2 = 0
Conditions | viscosity [mPa·s]
288.15 K | 1.146 ± 0.024
293.15 K | 1.007 ± 0.021
298.15 K | 0.893 ± 0.019
303.15 K | 0.797 ± 0.017
308.15 K | 0.719 ± 0.015

O [water] + NCCC(=O)O
[1], m2 = 0
Conditions | viscosity [mPa·s]
288.15 K | 1.146 ± 0.024
293.15 K | 1.004 ± 0.021
298.15 K | 0.8929 ± 0.019
303.15 K | 0.7965 ± 0.017
308.15 K | 0.7187 ± 0.015

O [water] + NCCCC(=O)O
[1], m2 = 0
Conditions | viscosity [mPa·s]
288.15 K | 1.146 ± 0.024
293.15 K | 1.004 ± 0.021
298.15 K | 0.893 ± 0.019
303.15 K | 0.797 ± 0.017
308.15 K | 0.719 ± 0.015

O [water] + NCCCCC(=O)O
[1], m2 = 0
Conditions | viscosity [mPa·s]
288.15 K | 1.146 ± 0.024
293.15 K | 1.004 ± 0.021
298.15 K | 0.893 ± 0.019
303.15 K | 0.797 ± 0.017
308.15 K | 0.719 ± 0.015

O [water] + NCCCCCC(=O)O
[1], m2 = 0
Conditions | viscosity [mPa·s]
288.15 K | 1.146 ± 0.024
293.15 K | 1.004 ± 0.021
298.15 K | 0.893 ± 0.019
303.15 K | 0.797 ± 0.017
308.15 K | 0.719 ± 0.015
